Reference: patent US6525059B1, “Substituted pyrazoles as p38 kinase inhibitors” (G. D. Searle & Company, priority 1998, dated 2003)
Where two headings read alike, the source gives them in different places.

Legend:
[1] = tested on: TNF-α; assay: LPS stimulation of TNF production by U937 cells; format: cell-based, human; details: Homo sapiens
Method in brief: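 PMA-differentiated human U937 cells (20 ng/ml PMA, 24 h, then 24-48 h rest) at 2 million cells/ml, 0.1% DMSO final, stimulated with E. coli LPS (100 ng/ml final) for 4 h at 37° C. TNF-α in medium measured by ELISA; IC50 in μM.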

[2] = tested on: TNF alpha; assay: Mouse model of LPS-induced TNF alpha production; format: in vivo
Protocol: TNF alpha was induced in 10-12 week old BALB/c female mice by tail vein injection with 100 ng lipopolysaccharide (from S. Typhosa) in 0.2 ml saline. One hour later mice were bled from the retroorbital sinus and TNF concentrations in serum from clotted blood were quantified by ELISA.
Efficacy was determined at each time point as percent inhibition of serum TNF levels relative to LPS injected mice that received vehicle only
wherein in the dose is milligram per kilogram (mpk) administered by oral gavage and the predose time indicates the number of hours before LPS challenge when the compound is administered.

[3] = biological target: T1, human p38 kinase alpha (Homo sapiens, UniProt Q16539); assay: p38 kinase in vitro assay, phosphorylation of biotinylated PHAS-I with gamma 32P-ATP; format: biochemical
T1 construct: The coding region of the human p38a cDNA was obtained by PCR-amplification from RNA isolated from the human monocyte cell line THP.1; GST (N); made in house; host or cells: E. coli DH10B
T1 sequence (Q16539 whole entry): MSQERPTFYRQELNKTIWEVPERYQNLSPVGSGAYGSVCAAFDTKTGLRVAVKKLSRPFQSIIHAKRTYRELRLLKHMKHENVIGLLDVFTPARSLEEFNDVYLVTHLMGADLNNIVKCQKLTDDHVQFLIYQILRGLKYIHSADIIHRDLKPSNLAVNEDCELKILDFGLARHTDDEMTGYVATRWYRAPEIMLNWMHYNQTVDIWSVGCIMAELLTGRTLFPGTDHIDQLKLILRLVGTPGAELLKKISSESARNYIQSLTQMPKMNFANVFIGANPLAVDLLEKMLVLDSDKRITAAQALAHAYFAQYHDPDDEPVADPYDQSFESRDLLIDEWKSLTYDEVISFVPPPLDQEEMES
Method in brief: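 MKK6-activated human p38α phosphorylates biotinylated PHAS-I with γ-32P-ATP in 25 mM HEPES pH 7.5, 10 mM Mg acetate, 50 μM unlabeled ATP, 1% DMSO, 30 °C for 1 h or overnight. Compounds at 100–0.001 μM (10-fold steps, triplicate); substrate captured on streptavidin filter plates and counted by scintillation.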

[4] = tested on: TNF-α; assay: Rat assay: LPS-challenged rats, serum TNF-α by ELISA; format: in vivo; details: Rattus norvegicus, po; for inhibition in vivo at 5 mg/kg: Table 10, dose 5.0 mg/kg; for inhibition in vivo at 5 mg/kg / inhibition in vivo at 1 mg/kg: read-out: Rat LPS Assay % Inhibition; for inhibition in vivo at 20 mg/kg: Table 10, dose 20.0 mg/kg; for inhibition in vivo at 1 mg/kg: Table 10, dose 1.0 mg/kg
[5] = biological target: T2, human GST-p38 kinase alpha (Homo sapiens, UniProt Q16539); assay: p38 kinase in vitro assay, second format, phosphorylation of EGFRP with 33P-ATP; format: biochemical; details: Table 10, 10% DMSO; @ 1.0 hour; read-out: p38α Kinase Assay IC50
T2 construct: The coding region of the human p38a cDNA was obtained by PCR-amplification from RNA isolated from the human monocyte cell line THP.1; made in house; host or cells: E. coli DH10B
T2 sequence (Q16539 whole entry): as above
Method in brief: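 Activated human GST-p38α (pre-activated with GST-MKK6, 1 h, 30 °C) phosphorylates EGFR 21-mer peptide (200 μM) with 50 μM ATP plus γ-33P-ATP, pH 7.5, 60 min at room temperature. Unreacted ATP removed by AG 1×8 resin; supernatant scintillation-counted.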

[6] = tested on: human TNF; assay: TNF inhibition: human whole blood assay; format: cell-based; details: Homo sapiens, Table 10, human whole blood, LPS; read-out: TNF Inhibition-Human Whole Blood Assay
[7] = U-937, LPS-stimulated U937 cells, read-out: U937 IC50
[8] = mouse, oral, 1h before LPS, 30 mpk, read-out: mLPS 1h, 30 mpk percent inhibition
[9] = p38α in vitro, PHAS-I assay procedure, read-out: p38^1 IC50
[10] = Mus musculus, 30 mpk oral gavage, -6h before LPS, read-out: Mouse LPS Model % TNF inhib @ dose @ predose time
[11] = read-out: P38 alpha kinase IC50
[12] = U-937, TNF production, LPS-stimulated human U937 cells, read-out: U937 Cell IC50

SMILES	inhibition in vivo at 5 mg/kg [4] [%]	inhibition in vivo at 20 mg/kg [4] [%]	IC50 [5] [nM]	IC50 [6] [nM]	melting point [°C]	further results
OCCn1cc(-c2ccncc2)c(-c2ccc(F)cc2)n1 [Example A-210, 3-(4-fluorophenyl)-4-(4-pyridinyl)-1H-pyrazole-1-ethanol]						IC50 [1, 7]: 198 nM; inhibition in vivo at 30 mg/kg [2, 8]: 93%; IC50 [3, 9]: 160 nM
Cn1nc(-c2ccc(F)cc2)c(-c2ccncc2)c1C(O)c1ccccc1 (stereo not drawn) [Example A-217, 3-(4-fluorophenyl)-1-methyl -α-phenyl-4-(4-pyridinyl)-1H-pyrazole-5-methanol]						IC50 [1, 7]: 349 nM; inhibition in vivo at 30 mg/kg [2, 8]: 9%; IC50 [3, 9]: 697 nM
Cn1cc(-c2ccncc2)c(-c2cccc(F)c2)n1 [Example A-229, 4-[3-(3-fluorophenyl)-1-methyl-1H-pyrazol-4-yl]pyridine]						IC50 [1, 7]: 462 nM; inhibition in vivo at 30 mg/kg [2, 8]: 91%
CN(C)CCNc1cc(-c2c[nH]nc2-c2ccc(F)cc2)ccn1 [Example A-264, N′-[4-[3-(4-fluorophenyl)-1H-pyrazol-4-yl]-2-pyridinyl]-N,N-dimethyl-1,2-ethanediamine]						IC50 [1, 7]: 259 nM; inhibition in vivo at 30 mg/kg [2, 8]: 61%
Fc1ccc(-c2n[nH]cc2-c2ccnc(NCCN3CCOCC3)c2)cc1 [Example A-266, N-[4-[3-(4-fluorophenyl)-1H-pyrazol-4-yl)-2-pyridinyl]-4-morpholineethanamine]						IC50 [1, 7]: 539 nM; inhibition in vivo at 30 mg/kg [2, 8]: 0%
Fc1ccc(-c2nn(CCN3CCOCC3)cc2-c2ccnc(F)c2)cc1 [Example A-269, 4-[2-[3-(4-fluorophenyl)-4-(2-fluoro-4-pyridinyl)-1H-pyrazol-1-yl]ethyl]morpholine]						IC50 [1, 7]: > 10000 nM; inhibition in vivo at 30 mg/kg [2, 8]: 51%
OCCn1cc(-c2ccnc(CCc3ccc(F)cc3)c2)c(-c2ccc(F)cc2)n1 [Example A-272, 3-(4-fluorophenyl)-4-[2-[2-(4-fluorophenyl)ethyl]-4-pyridinyl]-1H-pyrazole-1-ethanol]						IC50 [1, 7]: 583 nM; inhibition in vivo at 30 mg/kg [2, 8]: -8%; IC50 [3, 9]: 73 nM
CN(C)CCn1cc(-c2ccnc(N(C)C)c2)c(-c2ccc(F)cc2)n1 [Example A-273, 4-[1-[2-(dimethylamino)ethyl]-3-(4-fluorophenyl)-1H-pyrazol-4-yl]-N,N-dimethyl-2-pyridinamine]						IC50 [1, 7]: > 10000 nM; inhibition in vivo at 30 mg/kg [2, 8]: 43%; IC50 [3, 9]: 6980 nM
Cc1ccccc1-c1n[nH]c(N2CCN(C)CC2)c1-c1ccncc1 [Example A-408, 1-[5-(2-tolyl)-4-(4-pyridinyl)-1H-pyrazol-3-yl]-4-methylpiperazine]	20	49	5590	11700	244 to 244.2	
CN1CCN(c2[nH]nc(-c3cccc(Br)c3)c2-c2ccncc2)CC1 [Example A-409, 1-[5-(3-bromophenyl)-4-(4-pyridinyl)-1H-pyrazol-3-yl]-4-methylpiperazine]	41	89	210	5270	222.5 to 223.4	
COc1ccc(-c2[nH]nc(N3CCN(C)CC3)c2-c2ccncc2)cc1Cl [Example A-413]	45	85	910	6510	272.7 to 276.4	
CN1CCN(c2[nH]nc(-c3ccc(C(C)(C)C)cc3)c2-c2ccncc2)CC1 [Example A-414, 1-[5-(4-tert-butylphenyl)-4-(4-pyridinyl)-1H-pyrazol-3-yl]-4-methylpiperazine]	3	14	9510	11200	243.6 to 244.3	
CN1CCN(c2n[nH]c(-c3ccc(I)cc3)c2-c2ccncc2)CC1 [Example A-417, 1-[5-(4-iodophenyl)-4-(4-pyridinyl)-1H-pyrazol-3-yl]-4-methylpiperazine]	40	70	190	12000	265.2 to 265.8	
Nc1[nH]nc(-c2ccc(Cl)cc2)c1-c1ccncc1 [Example A-427, 5-amino-3-(4-chlorophenyl)-4-(pyridin-4-yl)pyrazole]	56	77	190	24100	> 300	
CSc1[nH]nc(-c2ccc(Cl)cc2)c1-c1ccncc1 [Example A-435]	0	14	350	> 25000	250.2	inhibition in vivo at 1 mg/kg [4]: 10%
CN1CCN(c2[nH]nc(-c3ccc(Br)cc3)c2-c2ccncc2)CC1 [Example A-439]	58	93	150	5630	270.2 to 270.7	
CC(C)(C)OC(=O)N1CCC(Oc2[nH]nc(-c3ccc(Cl)cc3)c2-c2ccncc2)CC1 [Example A-441]	14	62	1210	> 25000	230.1 to 231.8	
CN1CCC(Oc2[nH]nc(-c3ccc(Cl)cc3)c2-c2ccncc2)CC1 [Example A-448, 3-(4-chlorophenyl)-5-[(1-methylpiperidin-4-yl)-oxy]-4-pyridin-4-yl-1H-pyrazole]	73	97	84	120	255.9 to 256.8	
N#CCSc1[nH]nc(-c2ccc(Cl)cc2)c1-c1ccncc1 [Example A-456]	48	53	120	980	230 to 230.5	inhibition in vivo at 1 mg/kg [4]: 36%
Clc1ccc(-c2n[nH]c(SC3CCNCC3)c2-c2ccncc2)cc1 [Example A-459]	54	80	27	260	211.1 to 211.2	inhibition in vivo at 1 mg/kg [4]: 0%
COCCSc1[nH]nc(-c2ccc(Cl)cc2)c1-c1ccncc1 [Example A-469, 3-(4-chlorophenyl)-5-[(2-methoxyethyl)-thio]-4pyridin-4-yl-pyrazole]	51	68	95	7170	189.2 to 190.2	
Clc1ccc(-c2n[nH]c(SCC3OCCO3)c2-c2ccncc2)cc1 [Example A-473]		58	170	560	197 to 198.2	
O=C(CSc1[nH]nc(-c2ccc(Cl)cc2)c1-c1ccncc1)N1CCOCC1 [Example A-476]		35	1010	970	215.4 to 215.5	
[O-][S+](c1[nH]nc(-c2ccc(Cl)cc2)c1-c1ccncc1)C1CCNCC1 (stereo not shown) [Example A-482]		15	1620	690	189.1 to 190.8	
CC(Oc1ccccc1)C(=O)NCc1[nH]nc(-c2ccc(F)cc2)c1-c1ccncc1 (stereo not shown) [Example B-0087]						inhibition in vivo at 30 mg/kg [2, 10]: 38%; IC50 [3, 11]: 550 nM
O=C(COc1ccc(Cl)cc1)NCc1[nH]nc(-c2ccc(F)cc2)c1-c1ccncc1 [Example B-0093]						IC50 [1, 12]: 1250 nM; inhibition in vivo at 30 mg/kg [2, 10]: 30%; IC50 [3, 11]: 3180 nM
COc1ccc(S(=O)(=O)NCc2[nH]nc(-c3ccc(F)cc3)c2-c2ccncc2)cc1 [Example B-0117]						IC50 [1, 12]: 1780 nM; inhibition in vivo at 30 mg/kg [2, 10]: 30%; IC50 [3, 11]: 460 nM
C[C@@H](NC(=O)c1ccccc1C(F)(F)F)c1[nH]nc(-c2ccc(F)cc2)c1-c1ccncc1 [Example B-0368]						IC50 [1, 12]: 640 nM; inhibition in vivo at 30 mg/kg [2, 10]: 37%; IC50 [3, 11]: 1000 nM
C#CCNC(=O)Cn1nc(-c2ccc(F)cc2)c(-c2ccncc2)c1C [Example B-2310]						Mouse LPS Model % TNF inhib @ dose @ predose time ([2]; 30 mpk oral gavage): 50% @ 30 mpk @ -6h
